In patent US20250228880A1, “REDOX-ACTIVE COMPOUNDS AND RELATED COMPOUNDS, COMPOSITIONS, METHODS AND SYSTEMS” (CALIFORNIA INSTITUTE OF TECHNOLOGY, priority 2008, published 2025):
Values joined by “and” are separate entries in the source; they are usually repeats but may differ in a detail not shown here. Equal entries are not always repeated. “Also recorded” adds a separate entry of the source. Where two headings read alike, the source gives them in different places.

Assays:
[1] = tested on: P. aeruginosa PA14 Δphz mutant; test: Anaerobic survival in bulk electrolysis bioreactor (viable cell counts, CFU); format: cell-based, Pseudomonas aeruginosa; settings: for Support survival?: anaerobic survival of Δphz over 7 days, 10^9 cells/mL, 20 mM D-glucose, about 90 µM compound, electrode at +0.2 V vs. NHE, CFU on LB agar
Procedure: Microbiological methods. P. aeruginosa strain UCBPP-PA14 with deletions of two redundant phenazine biosynthetic operons phzA1-G1 and phzA2-G2, hereafter referred to as the Δphz mutant, was cultivated aerobically at 37° C. in Luria-Bertani (LB) broth (Fisher Scientific) to stationary phase. A washing procedure using centrifugation to collect cell pellets and vortexing to resuspend cell pellets in sterile PBS buffer (recipe) was repeated twice. For centrifugation, the cultures were split into 50 mL sterile centrifuge tubes and centrifuged for 8 minutes at 6000 g, at 4° C. After washing, cell culture was concentrated by resuspending pellets in PBS buffer with one-tenth of original cultural volume. Optical density of this culture was measured at 500 nm using Beckman Coulter D U 800 spectrophotometer. Dilution was performed to yield the OD reading below 0.8. The culture aliquots were then transferred into electrochemical cells with oxygen-free minimal salt medium (20 mM glucose as the carbon source) to serve as the cultures electrochemical studies (see next section for details).
Survival experiments in electrochemical setup. Electrochemical measurements were performed with a Gamry G- potentiostat. All experiments were conducted in an O2— and H2— free glovebox (MBraun) at 30° C. and in the dark. All measured potentials were referenced to a Ag/AgCl electrode (RE-5B, BASi). Reported potentials were referenced to the Normal Hydrogen Electrode NHE (V vs. NHE=V vs. Ag/AgCl+207 mV) to permit comparisons with other studies. A graphite rod (6.15 mm dia ×152 mm long, Alfa Aesar) was used as the working electrode, and the operating surface area was 6 cm^2. The counter electrode was made from a platinum mesh (Alfa Aesar) soldered to a copper wire. The working electrode was in a sample compartment together with the reference electrode. The counter electrode was in another compartment isolated from the working electrode. The two compartments were joined by a fritted glass junction. The controlled potential bulk electrolysis was set at 0 V vs. Ag/AgCl. This potential is mild enough to only oxidize reduced phenazines, but not other components in the cultural medium.
To test whether phenazine electron shuttling can help P. aeruginosa survive, 100 µM phenazine, 20 mM glucose, high or low initial cell densities in the range of 10^9 cells/mL or 10^7 cells/mL were added to the medium to give total 100 mL suspension in the compartment along with the working and reference electrodes, and the potential was applied at 0 V (vs. Ag/AgCl) for 7 days. Cell suspension aliquots were taken as a function of time for viable colony counts. Current and charge transferred were recorded continuously. Cultures without phenazine, or without the potential applied, or without both were served as the controls. To confirm that glucose is used as the carbon source in the case of survival, experiments with or without glucose addition were compared.
To investigate the effect of redox-active small molecules on anaerobic survival of redox active organisms, Applicants tested the effect of redox-active molecule in P. aeruginosa PA14. In particular, Applicants assembled bulk electrolysis-based glass bioreactors housed within an O2— and H2— free glovebox (MBraun) and controlled by a multichannel potentiostat (Gamry, Series G 300) outside the glovebox. Each bioreactor held a graphite rod working electrode (Alfa Aesar) with an operating surface area of 6 cm^2, a Ag/AgCl reference electrode (BASi, RE-5B) with a constant potential of +0.207 V vs. the normal hydrogen electrode (NHE), and about 100 mL MOPS culture medium [100 mM MOPS at pH 7.2, 93 mM NH4Cl, 43 mM NaCl, 2.2 mM KH2PO4, 1 mM MgSO4, […]](modified from ref. (Palmer, K. L., L. M. Mashburn, P. K. Singh, and M. Whiteley. 2005. Cystic fibrosis sputum supports growth and cues key aspects of Pseudomonas aeruginosa physiology. Journal of Bacteriology 187:5267-5277)). […]

[2] = tested on: P. aeruginosa PA14 Δphz mutant; test: Reduction by PA14 (colour change in survival control experiments without poised potential); format: cell-based, Pseudomonas aeruginosa; settings: intracellular reduction by Δphz cells
[3] = literature values (footnotes a, c, d, e); oxidized form; cited from earlier work
[4] = Reduction potential E0' (cyclic voltammetry); format: physicochemical; settings: measured in aqueous solution at pH 7 in this study (footnote b)
[5] = tested on: Pseudomonas aeruginosa PA14 phenazine null mutant; test: Colony morphology assay; format: cell-based; settings: pyocyanin added to the growth medium (50 μM HPLC-purified, 1% tryptone, 1% agar plates)
Procedure: In particular, in FIG. 8 is shown how the phenazine null mutant forms smooth colonies in the presence of exogenous phenazines. […] Image was taken after 5 days.
Colony morphology assay: colony morphology assay was performed with Pseudomonas aeruginosa and Streptomyces coelicolor as described herein below: a) Pseudomonas aeruginosa PA 14: Strains were grown in LB medium to late exponential phase, then 10 μl were spotted onto 1% agar plates containing 10 g/L Tryptone Broth, supplemented with […] Congo Red and […] Coomassie Blue as described previously (L. Friedman, R. Kolter, Mot Microbial 51, 675 (2004)). Plates were incubated at room temperature. Colonies were imaged using an Epson Perfection 2400 Photo Scanner at 600 dpi resolution, Nikon stereomicroscope or a digital microscope (Proscope). b) Streptomyces coelicolor A3(2): 10 µl of a spore suspension in water was spotted onto plates with R5-medium. Plates were incubated at room temperature for six days. Colonies were imaged using a Nikon stereomicroscope.

**Q.** For `Oc1cccc2nc3ccccc3nc12` [1-OHPHZ, 1-hydroxyphenazine], which “Support survival?” value [1] is on record?
**A.** promote anaerobic survival and Yes

**Q.** And the “Reduction by PA14?” value [2]?
**A.** Yes

**Q.** And the “E^0′ (vs. NHE)” value [3]?
**A.** −174^a mV

**Q.** With `O=C1c2ccc(S(=O)(=O)O)cc2C(=O)c2ccc(S(=O)(=O)O)cc21` [2,6-AQDS] as the compound, how does the “Support survival?” value [1] read?
**A.** No

**Q.** What about the “Reduction by PA14?” value [2] of the same compound?
**A.** only a small portion of 2,6-AQDS was reduced; also recorded: Yes (very slowly)

**Q.** What about the “E^0′ (vs. NHE)” value [3] of the same compound?
**A.** −184^d mV

**Q.** Which “Support survival?” value [1] does the source give for `O=C(O)Cc1cc(O)ccc1O` [HMA, Homogentisic acid] here?
**A.** cannot support Δphz survival and No

**Q.** Which results are given for `CN(C)c1ccc2nc3ccc(=[N+](C)C)cc-3sc2c1` [MB, Methylene blue]?
**A.** Support survival? [1]: cannot support Δphz survival and No; drop of viable cells ([1]; regardless of bioreactor experimental conditions, 7 days): 3 orders of magnitude; E^0′ (vs. NHE) [4]: 0 mV; Reduction by PA14? [2]: reduced intracellularly and Yes; E^0′ (vs. NHE) [3]: +11 mV

**Q.** With `O=C(O)c1cccc2nc3ccccc3nc12` [PCA, phenazine-1-carboxylic acid] as the compound, how does the “Support survival?” value [1] read?
**A.** promote anaerobic survival and Yes

**Q.** What about the “Reduction by PA14?” value [2] of the same compound?
**A.** Yes

**Q.** And the “E^0′ (vs. NHE)” value [3]?
**A.** −114^a mV

**Q.** Which “Support survival?” value [1] does the source give for `C[n+]1c2ccccc2nc2c([O-])cccc21` [PYO, Pyocyanin] here?
**A.** promote anaerobic survival and Yes

**Q.** What about the “survival vs. growth at low cell density” value ([1]; viable cells at 10^7 CFU/mL, data not shown) of the same compound?
**A.** supported only survival but not growth

**Q.** And the “drop of viable cells from the original CFU” value ([1]; without D-glucose, with PYO and the poised potential, by day 6)?
**A.** 4 orders of magnitude

**Q.** What about the “Reduction by PA14?” value [2] of the same compound?
**A.** Yes

**Q.** What about the “colony morphology of the phenazine null mutant” value [5] of the same compound?
**A.** smooth compact colonies

**Q.** And the “E^0′ (vs. NHE)” value [3]?
**A.** −40^a mV

**Q.** With `C[n+]1ccc(-c2cc[n+](C)cc2)cc1` [Paraquat] as the compound, how does the “Support survival?” value [1] read?
**A.** No

**Q.** What about the “Support survival?” value ([1]; listed as paraquat) of the same compound?
**A.** cannot support anaerobic survival of Δphz

**Q.** And the “Reduction by PA14?” value [2]?
**A.** No

**Q.** And the “Reduction by PA14?” value ([2]; listed as paraquat)?
**A.** cannot be reduced by Δphz

**Q.** And the “E^0′ (vs. NHE)” value [3]?
**A.** −446 mV and −446^e mV
